Measurements reported in patent publication US20080166310A1, “Administration of 2-oxyacetamide compounds for promoting and/or inducing and/or stimulating the pigmentation of keratin materials and/or for limiting the depigmentation and/or bleaching thereof” (L'OREAL, priority 2005, published 2008).

Test system: tyrosinase activity of normal human melanocytes
Assay: Effect on the tyrosinase activity of normal human melanocytes in culture (L-Dopa substrate, absorbance 450 nm)
Format: cell-based
Settings: 72 hours, normal human epidermal melanocytes
Description: Melanocyte Culture Conditions:
Normal human epidermal melanocytes are cultured (9th passage) in “melanocytes growth medium M2” supplemented with Promocell C24300 supplements 50 IU/ml of penicillin and 50 μg/ml of streptomycin (Invitrogen) under standard temperature conditions (37° C.) and 5% CO2.
Preparation of the Solutions of the Test Compound:
The compound is dissolved in absolute ethanol (PGE2) or in DMSO (15-PGDH inhibitors). The final titer of the prepared solutions is 10 mM. The final test concentrations range from 0.1 to 10 μM (PGE2) and 1 to 10 μM (15-PGDH inhibitors).
The tests performed consist in measuring the inhibitory effect on 15-PGDH alone or combined with PGE2* on the overall activity of tyrosinase.
PGE2 is a pigmentation modulator that is deactivated by the enzyme 15-PGDH.
The melanocytes are cultured in 96-well plates, to the point of confluence (culture conditions described in a), and the supernatant of each of the wells is then removed and replaced with medium containing the compounds to be evaluated, i.e., (in triplicate) the 15-PGDH inhibitor alone at 1 μM and 10 μM or for each of these first conditions in the presence of 0.1 μM, 1 μM or 10 μM of PGE2.
The cultures are maintained under these various conditions for 72 hours, the supernatants are then removed and the cell carpets are washed with a phosphate buffer (pH=7.2). The cells are lysed with a pH 7.2 phosphate buffer containing 1% Triton X100.
The tyrosinase activity of each of the lysates is then estimated against a fungal tyrosinase range (Sigma T7755).
The methodology employed uses L-Dopa as reaction substrate (45 minutes at 37° C.), and the formation of melanin is assessed by measuring the absorbance at 450 nm.
In this test, two references are also evaluated: kojic acid (a tyrosinase inhibitor introduced at 0.1% into the culture medium) and isobutylmethylxanthine (IBMX), a phosphodiesterase inhibitor which, by limiting the catabolism of cAMP, contributes towards increasing the overall tyrosinase activity as assessed in this test.

| Compound | stimulation of the tyrosinase activity (Compound 23 (1 μM) + PGE2 (1 μM)) | stimulation of the tyrosinase activity (Compound 23 (1 μM) + PGE2 (10 μM)) | stimulation of the activity of tyrosinase (PGE2 alone at 1 μM) | stimulation of the activity of tyrosinase (PGE2 alone at 10 μM) |
| --- | --- | --- | --- | --- |
| O=C(COc1cccc(Cl)c1)NCc1ccco1 [Compound 23, 2-(3-chlorophenoxy)-N-furan-2-ylmethylacetamide] | 31% | 28% | – | – |
| CCCCC[C@H](O)/C=C/[C@H]1[C@H](O)CC(=O)[C@@H]1C/C=C\CCCC(=O)O [PGE2, prostaglandin E2] | – | – | 9% | 15% |
